This is an account of results in ChEMBL document CHEMBL5260827, “Fructose-1,6-bisphosphatase inhibitors: A new valid approach for management of type 2 diabetes mellitus” (Eur J Med Chem, 2017).

The target in data set [1] is T1, Fructose-1,6-bisphosphatase 1 (Homo sapiens, UniProt P09467).
T1 sequence (P09467 whole entry): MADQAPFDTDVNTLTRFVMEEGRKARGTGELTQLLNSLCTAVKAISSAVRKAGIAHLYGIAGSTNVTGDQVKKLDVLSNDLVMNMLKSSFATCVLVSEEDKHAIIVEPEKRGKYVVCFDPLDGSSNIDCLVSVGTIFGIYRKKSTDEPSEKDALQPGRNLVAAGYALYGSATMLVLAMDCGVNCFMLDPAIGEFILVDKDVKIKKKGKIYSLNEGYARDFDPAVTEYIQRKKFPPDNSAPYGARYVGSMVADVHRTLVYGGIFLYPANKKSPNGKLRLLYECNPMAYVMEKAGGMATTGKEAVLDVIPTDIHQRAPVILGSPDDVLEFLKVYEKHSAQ
The experiment in a line: Inhibition of human liver FBPase expressed in Escherichia coli BL21 (DE3) measured after 48 hrs by spectrophotometry analysis.

Data set [2] concerns the target T1, Fructose-1,6-bisphosphatase 1. The experiment in a line: Inhibition of human liver FBPase by spectrophotometric method. Format: tissue-based.
Data set [3] has the same target. The data set is described as follows: biochemical.
For data set [4] the target is unchanged. The data set is described as follows: Inhibition of human liver FBPase.
Data set [5] can be described thus: Half life in Cynomolgus monkey at 10 mg/kg, po. It counts as ADME, organism-based, Macaca fascicularis. The conditions noted are these: in vivo.
Data set [6] relates to Hepatocyte. The experiment in a line: Inhibition of glucose production in human hepatocyte assessed as reduction in […]. It counts as functional, cell-based.
Data set [7] has as its system Rattus norvegicus. The experiment in a line: Hypoglycemic activity in ZDF rats assessed as reduction in blood glucose level at 10 to 300 mg/kg, po. It counts as functional. The conditions noted are these: dose 10-300 mg/kg.
Data set [8] in a line: Inhibition of Cynomolgus monkey FBPase. On the set-up: species or system Macaca fascicularis.
Data set [9] has as its system Mus musculus. The data set is described as follows: Hypoglycemic activity in db/db mouse assessed as reduction in blood glucose level at 300 mg/kg, po administered for 5 days. The conditions noted are these: time 5 day. It counts as functional.
Data set [10] is described as follows: Inhibition of rat FBPase.
A short description of data set [11]: Tmax in Cynomolgus monkey at 10 mg/kg, po upto 24 hrs by LC/MS/MS analysis. It counts as ADME, organism-based, Macaca fascicularis. The conditions noted are these: in vivo.
A short description of data set [12]: Oral bioavailability in cynomolgus monkey at 10 mg/kg. It counts as ADME, organism-based, Macaca fascicularis. To be noted: in vivo.
Data set [13] is described as follows: Cmax in Cynomolgus monkey at 10 mg/kg, po measured after 3 hrs by LC/MS/MS analysis. It counts as ADME, organism-based, Macaca fascicularis. On the set-up: dose 10 mg/kg, time 3 hrs, route po. The conditions noted are these: in vivo.
Data set [14] is filed under the species Oryctolagus cuniculus.
Description: Binding affinity to recombinant rabbit FBPase expressed in Escherichia coli assessed as maximal activity

Broadly, the IC50 is the concentration that inhibits the measured activity by half. `COC(=O)c1ccc(S(=O)(=O)n2cccc2)cc1` showed an IC50 in data set [1] of 32 nM. In data set [2], `CC1=CC=CN2C(CC(C)C)C(c3ccc(P(=O)(O)O)o3)=NC12` (stereo unspecified) gave an IC50 of 1600 nM.

`CSc1nc(N)c2nc(-c3ccc(P(=O)(O)O)o3)n(CC(C)C)c2n1`: in data set [3], the IC50 came out at 700000 nM. On to `CC(C)Cn1c(C2CCC(P(=O)(O)O)O2)nc2c(N)c(F)cc(CCBr)c21` (stereo unspecified), for which inhibition in data set [2] was half-maximal at 34 nM (IC50).

Compound `COc1ccc(CC(=O)Nc2cccc(-c3nnc(-c4cccc(Cl)c4)o3)c2)cc1OC` came in with an IC50 in [4] of 15400 nM. Take `O=P(O)(O)OC[C@H]1O[C@H](COP(=O)(O)O)[C@@H](O)[C@@H]1O`: the IC50 in data set [2] turned out to be 2000 nM.

The compound `COc1ccc(CC(=O)Nc2cccc(-c3nnc(-c4ccc(C)cc4)o3)c2)cc1OC` had an IC50 in data set [4] of 4510 nM. `CC1SC(=O)NN=C1c1ccc2[nH]c(-c3ccc(-n4ccnc4)cc3)nc2c1` (stereo unspecified) displayed an IC50 in [2] of 36000 nM. Still for that read-out and setting: then `CSc1nc(N)c2nc(-c3ccc(P(=O)(O)O)o3)n(CC(C)(C)C)c2n1`, with 700 nM.

Broadly, the half-life is the time in which the quantity being followed falls by half. For orientation: EC50 means the concentration that produces a half-maximal response. The Tmax is the time from dosing to the highest level. The bioavailability is dose-corrected exposure relative to a reference, in per cent. As usually defined, the Cmax is the maximum level reached in the sampled fluid or tissue. `CC(C)(C)C(=O)c1sc(N)nc1-c1ccc(P(=O)(O)O)o1` had a half-life in [5] of 7.6 h. Further, the EC50 in [6] was 140 nM. Also, the Activity in [7] was found to be 200 mg/dL; in data set [9] it was 350 mg/dL. The figures for the IC50 in data set [8] and in data set [10] were 121 nM and 189 nM, respectively. For the same compound, in data set [11], the Tmax was found to be 3.3 h. The bioavailability in data set [12] stood at 52%. This compound registered a Cmax in data set [13] of 2100 ng/mL. As for `CCCC(C)C(=O)c1sc(N)nc1-c1ccc(P(=O)(O)O)o1` (stereo unspecified), half-maximal inhibition in data set [2] (IC50) required 11 nM. The same measure, in the same setting: then `N#Cc1ccc(C(C(=O)NCCc2ccc(O)cc2)N2C(=O)C3Cc4ccc(O)cc4CN3C(=O)C2CC2CCCCC2)cc1` (stereo unspecified), with 370 nM. By Km is commonly meant the concentration of substrate that gives half-maximal velocity. On to `CCOc1cc2ncnc(Nc3cccc(Cl)c3)c2cc1OCC`, for which the Km in data set [14] stood at 2.7 µM.
